Test results from PMC10341764 (International Journal of Molecular Sciences, 2023).
Blank lines part the entries; values can stand above or below the molecule they belong to.

Key:
adrenals = settings: cited from earlier work
ACAT = system: ACAT; design: method as in PMID 8937424, PMID 12536672; settings: cited from earlier work
cortical regions = system: cortical regions; design: method as in PMID 23427273; settings: fed to mice for seven days; cited from earlier work
ACAT1 = settings: cited from earlier work
ACAT2 = settings: cited from earlier work
[1] = design: method as in PMID 12735237; settings: cited from earlier work
5xFAD mouse model = system: 5xFAD mouse model; design: method as in PMID 37157042; settings: oral feeding for 60 days; cited from earlier work
mouse model for EOAD = system: mouse model for EOAD; design: method as in PMID 15473963; settings: slow-releasing pellet implanted underneath the mouse skin; cited from earlier work
[2] = HPLC/MS/MS analysis of F12511 content in plasma and tissues; type: in vivo; settings: mouse, brain / plasma, intravenous, 46 mg F12511/kg; 12 to 24 h time point
Protocol: We also monitored the ACAT enzyme activities in various tissues 4 to 48 h after a single IV injection of nanoparticle F at 46 mg/kg.
Both compounds were dissolved in DMSO at 10 mg/mL and stored at −40 °C. Subsequent working dilutions were made in fresh acetonitrile (ACN) daily. Calibrators and quality control measures were used in the appropriate matrix: C57BL/6 plasma (anticoagulant: K3-EDTA, Innovative Research), brain homogenate, liver homogenate, and adrenal gland homogenate. The tissues were homogenized at 0.1 g/mL in diH2O by using stainless steel beads and a Next Advance Bullet Blender. All the samples (50 µL) were protein precipitated, with 150 µL of 10 ng/mL CP113,818 in ACN acting as an internal standard and added via vortex for 1 min and centrifugation for 5 min at 15,000 rpm. In total, 150 µL of supernatant was transferred to amber autosampler vials, and 10 µL was injected on the LC-MS/MS system. […] The heated ESI source was operated with a spray voltage of 4500 V, vaporizer temperature at 500 °C, capillary temperature at 250 °C, and sheath and auxiliary gases at 30 and 15 arbitrary units, respectively.

ACAT enzyme = ACAT enzyme activity in tissue homogenates after IV injection (mixed micelles assay); settings: judged by ACAT inhibition in brain
Protocol: Based on this finding, we treated the animals with the inhibitor by IV injection, perfused the mice after the animals were treated (to remove blood contamination from the tissues), then prepared the tissue homogenates, and monitored the ACAT enzyme activity in these tissues by using the mixed micelles enzyme assay described previously [24, 39, 49, 50] (the mixed micelles assay measures the ACAT enzyme activity independent of endogenous lipid composition because it reconstitutes the ACAT protein in mixed micelles with a defined lipid composition).

[3] = design: method as in PMID 31646241; settings: cited from earlier work

SMILES: CCCCCCCCC(SCCCCCC)C(=O)Nc1c(SC)cc(C)nc1SC (single isomer, unassigned) [enantiomeric isomer of CP113,818]
adrenal toxicity (adrenals): causes severe adrenal toxicity | activity as ACAT inhibitor (ACAT): inactive as an ACAT inhibitor

SMILES: O=C(O)C[C@H]1CC[C@H](c2ccc(NC(=O)c3nnc(Nc4ccc(F)c(F)c4)o3)cc2)CC1 [AZD3988]
fine vacuolation in cortical regions (cortical regions): significant reduction in fine vacuolation in cortical regions

SMILES: CC(C)c1cc(C(C)C)c(CC(=O)NS(=O)(=O)Oc2c(C(C)C)cccc2C(C)C)c(C(C)C)c1 [CI1011, 2,6-bis(1-methylethyl)phenyl ((2,4,6-tris(1-methylethyl)phenyl)acetyl)sulfamate]
Ki (ACAT1): 20000 nM | Ki (ACAT2): 20000 nM | clinical phase 1 safety tests [1]: passed clinical phase 1 safety tests | amyloidopathy and other AD-like pathologies (5xFAD mouse model): ameliorated amyloidopathy and other AD-like pathologies

SMILES: CCCCCCCC[C@H](SCCCCCC)C(=O)Nc1c(SC)cc(C)nc1SC [CP113,818]
Ki (ACAT1): 20 nM | Ki (ACAT2): 20 nM | adrenal accumulation and toxicity (adrenals; preclinical trial, animals): accumulated in adrenals in animals and caused toxicity | amyloidopathy (mouse model for EOAD): effective in suppressing amyloidopathy

Kp [2]: 0.005 to 0.01 | permeability to the mouse brain as part of nanoparticles (ACAT enzyme): permeable to the mouse brain
SMILES: CCCCCCCCCCCCS[C@H](C(=O)Nc1cc(C)c(O)c(C)c1C)c1ccccc1 [F12511, (S)-2′,3′,5′-trimethyl-4′-hydroxy-alpha-dodecylthio-alpha-phenylacetanilide]
Ki (ACAT2): 110 nM | clinical phase 1 safety tests [1]: passed clinical phase 1 safety tests | adrenal toxicity in animals (adrenals): did not cause adrenal toxicity in animals

SMILES: CSc1cc(C)nc(SC)c1NC(=O)CN1CCN(CCSc2nc3ccccc3[nH]2)CC1.Cl.Cl [K604, 2-[4-[2-(Benzimidazol-2-ylthio)ethyl]piperazin-1yl]-N-[2,4-bis(methylthio)-6-methyl-3-pyridyl]acetamide dihydrochloride]
clinical phase 1 safety tests [1]: passed clinical phase 1 safety tests | permeability to the mouse brain [3]: impermeable to the mouse brain
